Measurements as given in patent US11278525B1, “Further molecules, compositions and methods for modulation of SIRT6” (SirTLab Corporation, priority 2017, dated 2022).

Each compound was assayed against SIRT6 (Homo sapiens, UniProt Q8N6T7) (assay: SIRT6 enzymatic activity assay with fluorophore (AMC)-labeled Lysin-myristoylated histone H3 peptide (de-myristoylation, trypsin release)). Details: amount tested 20 uM; Example 5, Table 9.
Assay type: biochemical
Set-up: six-histidine tag; made in house; host or cells: Escherichia coli BL21
Description: Human recombinant SIRT6 (sequence identifier: CAG33481.1; GI:4814651) was expressed in large scale in Escherichia coli strain BL21 as a six-histidine-tagged protein, after transformation of the expression plasmid pET28-SIRT6. The SIRT6 enzyme was purified from the bacteria culture broth in a two-step strategy. The first purification step was carried out by cation exchange chromatography on a HiTrap CM-Sepharose column (GE Healthcare) using an FPLC system. The second purification step was performed by immobilized metal ion affinity chromatography (IMAC) using a cobalt affinity column (Clontech).
The enzymatic activity assay is carried out in 96 or 384-well microplates using the purified recombinant SIRT6 and a fluorophore-labeled peptide substrate: 7-amino-4-methylcoumarin (AMC) that is quenched through conjugation to the C-terminal end of a Lysin-myristoylated histone H3 peptide. The activity assay procedure requires two steps, both performed in the same microplate. In the first step, the substrate is incubated with the purified SIRT6 protein along with the co-substrate nicotinamide adenine dinucleotide (NAD+). Upon de-myristoylation, the liberated ε-amino group of the lysine becomes a trypsin substrate. Treatment with trypsin in the second step releases the fluorophore resulting in an increase in fluorescence. Fluorescence intensity is measured using a fluorescent plate reader (excitation and emission at 370 nm and 450 nm, respectively). The fluorescence signal is directly proportional to SIRT6 enzymatic activity.
In the primary screening, compounds from a library (ChemDiv Inc.) were tested at a single concentration of 20 micromolar for their potential to modulate SIRT6 enzymatic activity. The assay was carried out in 384-well black well plates and all liquid handling was done using a robotic liquid handler. Purified recombinant SIRT6 (1 micromolar) was pre-incubated with each compound (or DMSO in control wells) for 15 minutes at room temperature. The first stage of the assay was initiated by adding a ‘substrate solution’ containing the myristoylated histone H3 peptide and NAD+(for final concentrations of 25 micromolar and 20 micromolar, respectively). After one hour incubation at 37° C., a Trypsin solution (6 mg/mL) was added for 30 minutes at room temperature. Fluorescence intensity was measured using a fluorescent plate reader (Tecan) with excitation at 370 nm and emission at 450 nm. The effect of each tested compound was evaluated by the change in the fluorescence intensity compared to control wells. […] To validate the primary screening results, each of the primary “hits” was re-tested, first at concentration of 20 micromolar in duplicates and later at a serial dilution ranging from 100 to 0.2 micromolar in triplicates.
Results of Assay—The results of the assay are given below in Tables 1-3.
Additional molecules were tested according to the methods and materials of Example 1. The amount tested was 20 uM for each molecule.

Sequence of SIRT6 (Q8N6T7 whole entry): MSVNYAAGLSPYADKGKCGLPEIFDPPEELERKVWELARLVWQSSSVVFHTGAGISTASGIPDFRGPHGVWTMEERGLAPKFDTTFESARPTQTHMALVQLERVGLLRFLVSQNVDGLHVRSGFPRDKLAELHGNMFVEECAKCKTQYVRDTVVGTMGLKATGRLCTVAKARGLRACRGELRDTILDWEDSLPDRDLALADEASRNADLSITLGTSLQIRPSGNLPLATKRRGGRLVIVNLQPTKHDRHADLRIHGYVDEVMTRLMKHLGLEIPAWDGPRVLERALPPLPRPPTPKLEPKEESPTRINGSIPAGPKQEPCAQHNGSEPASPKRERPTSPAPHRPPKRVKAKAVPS

| Compound | % Activity [%] |
| --- | --- |
| CCOc1ccccc1C(=O)Oc1ccc2c3c(c(=O)oc2c1)CCCC3 [Y040-4190] | 168 |
| CCN(CC)CCN(C(=O)CCOc1ccccc1)c1nc2c(F)cc(F)cc2s1 [E676-5517] | 38 |
| Cc1c(OC(=O)c2ccccc2)ccc2c3c(c(=O)oc12)CCC3 [4986-0081] | 41 |
| CN(C)CCCN(C(=O)CCOc1ccccc1)c1nc2ccc(Br)cc2s1 [E677-0691] | 28 |
| CN1CCC(NC(=O)C2CCN(c3nc4ccc(-c5ccccc5)nc4s3)CC2)CC1 [T387-0726] | 22 |
| COc1ccc(C(=O)Oc2ccc3c(C)c(Cc4ccccc4)c(=O)oc3c2C)cc1 [Y040-7713] | 21 |
| CCN(CC)CCN(C(=O)CCS(=O)(=O)c1ccccc1)c1nc2c(C)cccc2s1 [E676-3810] | 121 |
| CN(C)CCCN(C(=O)CCOc1ccccc1)c1nc2ccc(Cl)cc2s1 [B677-0564] | 28 |
| COc1cc(OC)cc(C(=O)Nc2nc3c(cc4c5c(cccc53)CC4)s2)c1 [3343-0231] | 24 |
| CCOC(=O)CCc1c(C)c2ccc(OC(=O)c3cccc(OC)c3)c(C)c2oc1=O [Y041-1765] | 80 |
| CCOC(=O)CCc1c(C)c2ccc(OC(=O)C3CCCCC3)c(C)c2oc1=O [Y04-4165] | 529 |
| CN(C)CCN(C(=O)CCS(=O)(=O)c1ccccc1)c1nc2c(Cl)cccc2s1 [E676-1524] | 80 |
| CN(C)CCCN(C(=O)CCS(=O)(=O)c1ccccc1)c1nc2c(F)cccc2s1 [E677-1397] | 95 |
| CCN(CC)CCN(C(=O)CCOc1ccccc1)c1nc2c(F)cccc2s1 [E676-4120] | 60 |
| CCC(=O)Nc1nc2c(OC)cc(NC(=O)c3ccccc3OC)cc2s1 [F259-0462] | 117 |
| Cc1ccc2sc(N(CCCN(C)C)C(=O)CCS(=O)(=O)c3ccccc3)nc2c1C [E677-2159] | 70 |
| Cc1c(Cc2ccccc2)c(=O)oc2cc(OC(=O)C3CCCCC3)ccc12 [Y040-7756] | 61 |
| O=C(C1CCN(c2nc3ccc(-c4cncnc4)nc3s2)CC1)N1CCCC1 [T387-0947] | 40 |
| CN(C)CCCN(C(=O)CCS(=O)(=O)c1ccccc1)c1nc2ccc(F)cc2s1 [E677-0508] | 53 |
| Cc1ccccc1C(=O)Oc1ccc2c3c(c(=O)oc2c1)CCC3 [2712-4063] | 61 |
| CC(=O)Oc1ccc2c3c(c(=O)oc2c1C)CCCC3 [3330-4541] | 105 |

| Compound | % Activity [%] |
| --- | --- |
| Cc1ccc(COc2ccc3c4c(c(=O)oc3c2C)CCC4)cc1 [3338-2074] | 21 |
| Cc1ccccc1C1N=C2C=NC=CN2C1NCCC(=O)NCc1cccs1 (stereo not shown) [P349-2111] | 84 |
| COC(=O)COc1cccc2c1ccc1c3c(c(=O)oc12)CCCC3 [3532-0820] | 30 |
| O=C(CSc1nc2ncccc2n2cccc12)NCc1ccco1 [G117-0491] | 88 |
| CCNC(=O)N1CCc2c(sc3ncnc(NCC)c23)C1 [S324-0342] | 30 |
| COC(=O)c1ccccc1NC(=O)Cn1c(S(=O)(=O)Cc2ccccc2)nc2ccccc21 [7398-1534] | 27 |
| COc1cccc2sc(N(CCCN(C)C)C(=O)CCSc3ccccc3)nc12 [E677-1137] | 111 |
| O=C(c1ccccc1Br)N1C(=O)c2ccccc2S1(=O)=O [8006-3826] | 56 |
| Cc1c(Cc2ccccc2)c(=O)oc2c(C)c(OC(=O)C3CC3)ccc12 [Y040-1980] | 30 |
| COc1cccc2sc(N(CCCN(C)C)C(=O)CCS(=O)(=O)c3ccccc3)nc12 [E677-1143] | 111 |
| COC(=O)Cc1c(C)c2ccc(OC(=O)c3cccc(OC)c3)c(C)c2oc1=O [Y040-3572] | 396 |
| CC1CCN(C(=O)C2CCN(c3nc4ccc(-c5ccncc5)nc4s3)CC2)CC1 [T387-1113] | 47 |
| CCOc1cccc2sc(N(CCN(C)C)C(=O)CCS(=O)(=O)c3ccccc3)nc12 [E676-1270] | 61 |
| Cc1ccc(C(=O)Oc2ccc3c4c(c(=O)oc3c2C)CCC4)cc1 [Y040-4193] | 53 |
| Cc1cc(C)c2c(N)c(-c3nnc(-c4ccccc4)o3)sc2n1 [8018-7776] | 42 |
| Cc1c(Cc2ccccc2)c(=O)oc2cc(OC(=O)c3ccccc3)ccc12 [Y040-7755] | 212 |
| CCN(CC)C(=O)C1CCN(C2=Nc3ccc(-c4ccncc4)nc3C2)CC1 [T387-1131] | 85 |
| COc1cccc(C(=O)Oc2ccc3c4c(c(=O)oc3c2C)CCCC4)c1 [Y040-0750] | 33 |
| Cc1c(C)c2ccc(OC(=O)C3CCCCC3)c(C)c2oc1=O [Y040-1862] | 237 |
| COc1cc(C(=O)Oc2ccc3c4c(c(=O)oc3c2)CCCC4)cc(OC)c1OC [Y040-2478] | 95 |
| COc1cccc2sc(N(CCCN(C)C)C(=O)CCOc3ccccc3)nc12 [E677-1072] | 117 |

Same assay, conditions: compound 20 uM; percentage of signal increase relative to control wells; Tables 1-2

| Compound | % activity 20 uM [%] |
| --- | --- |
| CCCNC(=O)c1ccc(-c2ccc(N3CCCCC3)nc2)cc1 [M715-0111] | 63 |
| Cc1ccnc(NC(c2ccc(Cl)cc2Cl)c2ccc3cccnc3c2O)c1 (stereo not shown) [4896-3248] | 30 |
| CCOC(=O)C1CCCN(S(=O)(=O)c2ccc(-c3ccc(N4CCOCC4)nn3)s2)C1 (stereo not shown) [K906-5001] | 52 |
| C=C1Cc2c(cccc2CC)C=C1c1csc(NC(=O)CCC(=O)NCCCN2CCC(C)CC2)n1 [K232-1782] | 42 |
| CC(C)Cn1c(=O)c(-c2ccc(C(=O)N3CCN(c4ccccc4)CC3)cc2)nc2ccccc21 [M049-1557] | 51 |
| CCCNc1nc2ccccc2nc1S(=O)(=O)Cc1ccc(Cl)cc1 [L103-0652] | 34 |
| O=c1[nH]c2ccc(Cl)cc2c(-c2ccccc2)c1Nc1ccc(Oc2ccccc2)cc1 [8013-3307] | 24 |
| C=C(Nc1cc(C)cc(C)c1)Nc1nnc(SCC2=CC(=C)N3C=C(C)C=CC3=N2)s1 [G755-0539] | 34 |
| CC(=O)Nc1ccc(-c2cc(C(=O)NCCN3CCN(C)CC3)c3cc(C)ccc3n2)cc1 [L036-2289] | 96 |

Same assay, conditions: compound 100 uM; percentage of signal increase relative to control wells; Tables 1-2

| Compound | % activity Max. conc. 100 uM [%] |
| --- | --- |
| CCCNC(=O)c1ccc(-c2ccc(N3CCCCC3)nc2)cc1 [M715-0111] | 50 |
| O=C(c1ccc(-c2ccc(N3CCCCC3)nc2)cc1)N1CCCC1 [M715-0156] | 75 |
| Cc1cc(Nc2ccc(NC(=O)Nc3ccc4c(c3)CCCO4)cc2)nc(NC2CCCCC2)n1 [D577-0290] | 22 |
| Cc1ccnc(NC(c2ccc(Cl)cc2Cl)c2ccc3cccnc3c2O)c1 (stereo not shown) [4896-3248] | 28 |
| CCOC(=O)C1CCCN(S(=O)(=O)c2ccc(-c3ccc(N4CCOCC4)nn3)s2)C1 (stereo not shown) [K906-5001] | 52 |
| Cc1ccc(Nc2nc(C)c(C(=O)Nc3cccc(C(C)C)c3)s2)cc1 [M830-6572] | 11 |
| C=C(CS)Nc1ccc(CCCCC)cc1 [8008-0525] | 48 |
| C=C1Cc2c(cccc2CC)C=C1c1csc(NC(=O)CCC(=O)NCCCN2CCC(C)CC2)n1 [K232-1782] | 35 |
| Cn1c(-c2ccc3[nH]c(-c4ccc(N)cc4)nc3c2)nc2cc(N)ccc21 [6843-3168] | 162 |
| Cc1ccccc1CSc1ncc(Sc2ccccc2)c(C(=O)NCc2ccccc2)n1 [D506-0127] | 65 |
| N#Cc1cccc(-c2cn3c(n2)N(C(=O)c2ccncc2)CCC3)c1 [P950-0537] | 45 |
| C=S(=C)(c1cc(Cl)ccc1Cl)n1c(/C=C/c2ccc(SC)cc2)nc2ccccc21 [C381-0232] | 36 |
| C=C1Oc2ccc(C)cc2-c2oc(NCCOC)c(-c3ccc(OCC)cc3)c21 [F025-0098] | 226 |
| CC(C)Cn1c(=O)c(-c2ccc(C(=O)N3CCN(c4ccccc4)CC3)cc2)nc2ccccc21 [M049-1557] | 56 |
| CCCC1(CO)CCCN1C(=O)c1ccc2cc[nH]c2c1 (stereo not shown) [P933-1294] | 53 |
| CCCNc1nc2ccccc2nc1S(=O)(=O)Cc1ccc(Cl)cc1 [L103-0652] | 42 |
| O=c1[nH]c2ccc(Cl)cc2c(-c2ccccc2)c1Nc1ccc(Oc2ccccc2)cc1 [8013-3307] | 86 |
| C=C(Nc1cc(C)cc(C)c1)Nc1nnc(SCC2=CC(=C)N3C=C(C)C=CC3=N2)s1 [G755-0539] | 87 |
| O=c1cc(O)c2sc3nc4c(cc3c2[nH]1)CCCCC4 [8018-3339] | 75 |
| Cc1cc(NC(=O)CSc2nnc(-c3sc4ncccc4c3N)n2C)ccc1Cl [D549-0050] | 47 |
| O=C(Nc1ccc2nncn2c1)c1cccc(Cl)c1 [M723-0069] | 51 |
| COCCNc1oc2c(c1-c1ccc(C)cc1)c(=O)oc1c(C)cccc12 [F025-0102] | 111 |
| C=C1Nc2nc(OC(C)=O)c(C)c(C)c2S1 [8018-4551] | 197 |
| CC(=O)Nc1ccc(-c2cc(C(=O)NCCN3CCN(C)CC3)c3cc(C)ccc3n2)cc1 [L036-2289] | 119 |
| CC1=NCC(c2ccc(O)cc2O)=C1c1ccc(Cl)cc1 [8020-1200] | 94 |
